# Tests used:
# [1] = test system: supercoiled pUC19 plasmid DNA; experiment: In vitro condensation assay of Mre11 (fluorescence microscopy); assay type: biochemical
# Procedure: Fig. 1 Mre11 and the MRX complex assemble DNA-dependent condensates in vitro. a, c Effect of the presence of plasmid DNA on condensation of (a) Alexa488-labeled Mre11 (n = 11 and 9 fields of view for reactions without and with DNA, respectively) and (c) eGFP-tagged MRX (n = 11 (- DNA) and 9 ( + DNA)). Experiments were performed without PEG. b, d Effect of DNase I, in the absence of PEG, on (b) Mre11 (n = 9 (no treatment) and 11 (DNase I)) and (d) MRX (n = 9 (no treatment) and 11 (DNase I)) condensates. Condensates were pre-assembled for 20 min with 5.7 nM pUC19 prior to challenge. Quantification represents total foci intensity (green) in a field of view and total number of foci per 1000 µm^2 (magenta). Foci intensity is normalized to the mean intensity of samples with DNA for (a, c) and untreated samples for (b, d). […] Quantification represents total foci intensity (green) in a field of view (normalized to the mean of + PEG images) and total number of foci per 1000 µm^2 (magenta). […]
# Fig. 2 The C-terminal IDR of Mre11 is required for condensation. a AlphaFold2 predicted model of Mre11 (AF-P32829-F1-v4). […] Quantification represents total fluorescence intensity (green) in a field of view and total number of foci per 1000 µm^2 (magenta). […]
# pUC19 plasmid substrate = experiment: Gel shift assay, plasmid DNA binding; conditions: 1 nM pUC19; reduced-mobility complexes (supershift) at higher concentration
# Procedure: Proteins were diluted to their appropriate working concentrations in their respective storage buffers. […] Reactions were assembled at 30 °C for 30 mins and resolved in a 1% agarose (SeaKem LE Agarose, Lonza) at 60 V for 120 mins at 4 °C. Gels were stained with SYBR Gold Nucleic Acid Gel Stain (S11497, Invitrogen) for 40 mins and visualized with Amersham Typhoon biomolecular imager (Cytiva).
# Mer2 condensates = experiment: Colocalization of fluorescently-labeled Mer2 and Mre11 condensates; assay type: binding, Saccharomyces cerevisiae; conditions: condensates assembled separately on DNA then incubated together
# Procedure: Fig. 4 Mer2 recruits Mre11 during meiosis. a Effect of 1,6-hexanediol treatment on meiotic Mre11^myc foci visualized by immunofluorescence analysis of yeast nuclear spreads 4 hours after transfer to SPM. […] At least 22 tetrads were dissected for each strain (n ≥ 88 spores). e Quantification of sub-population of cells showing discrete Mre11 foci and aggregated Mre11 foci in indicated strains. Images used for analysis were from the same experiments in (b) and (d). f Colocalization of fluorescently-labeled Mer2 with wild-type or truncated Mre11. […] The number of images analyzed for each sample were WT (n = 11), Mre11^Δ10-270 (n = 13), Mre11^Δ290-472 (n = 15), Mre11^ΔIDR (n = 10), Mre11^ΔC49 (n = 13). Error bars represent mean ± SD from the indicated (n) fields of view. p-values compared to Mre11-WT are: Mre11^Δ10-270 (0.006), Mre11^Δ290-472 (0.0003), Mre11^ΔIDR (<0.0001), Mre11^ΔC49 (<0.0001). g Colocalization of fluorescently-labeled Mre11-C49 and Mer2. Condensates were assembled by mixing 800 nM of ^mScarletMre11-C49 and 200 nM of ^eGFPMer2 for 30 min prior to imaging. […]
# Proteins were diluted to a 10 × stock of their appropriate working concentrations in their respective storage buffers. […] Images were analyzed with ImageJ using a custom-made script. […] Masked foci were counted, and the intensity inside the focus mask was integrated. […] Data were analyzed using Graphpad Prism 10.4.0.
substance,measurement,setting,value
"Mre11: full-length yeast Mre11 nuclease, recombinant from Sf9 cells",Condensate formation (in words),[1]; in the presence of plasmid DNA,form large clusters visible by fluorescence microscopy
same,Protein concentration above which foci intensity steeply increases,"[1]; protein titration, plasmid DNA, 5% PEG",above 200 nM
same,Protein concentration up to which fast-migrating complexes form,pUC19 plasmid substrate,~25 nM
same,Colocalization with Mer2 condensates (in words),Mer2 condensates,nearly absolute colocalization

# Source: publication PMC13233820, “Recruitment of Mre11 to recombination sites during meiosis” (Nature Communications, 2026)
